Read-outs that look alike come from different tables or passages of the source.

What all share (assay type): cell-based
Series [1] has as its system MCF-7 breast cancer cell line. The series is described as follows: PrestoBlue cytotoxicity assay against MCF-7 breast cancer cells. As to conditions: MCF-7, PrestoBlue, 24 h incubation, run twice and averaged. The procedure: (§1) A normal cell (CV-1 kidney fibroblast cells) and two cancer cell lines (MCF-7 breast cancer and B16-F10 melanoma cells) were used to test the cytotoxic activities of compounds 1–7. In this experiment, two wavelengths (570 and 600 nm) were used because the measured cells were live cells so, to obtain the value/number of live cells, measurements were carried out at two wavelengths, namely before the reaction (blue) and after the reaction (pink) to produce a corrected absorbance value, which was interpreted as the number live cells after treatment. The results arising from the experiments, along with IC50 calculation graphs and cell morphology at each sample concentration, are presented in Figures S38–S58.
(§2) The PrestoBlue assay was utilized to conduct the cytotoxic bioassay. Additionally, Presto Blue reagent from Thermo Fisher Scientific, Uppsala, Sweden, was used to measure cell viability, which allowed for rapid evaluation of various resazurin-based cells. The rate of proliferation of the samples was then determined quantitatively through live-cell reduction capabilities. According to the findings, healthy cells kept a reduced habitat in their cytoplasm. By reducing resorufin (purple) with absorbance or fluorescence outputs, resazurin reduction (blue) acted as a viability indicator. The conversion correlated with the number of cells that were metabolically active. MCF-7, B16-F10, and CV-1 cell lines were cultured until they reached 70% confluence, and then they were removed, counted with a hemocytometer, and diluted with complete culture RPMI media. A total of 170,000 cells per well in 96-well plates with the samples were used. After an overnight growth period, the samples were treated with compounds 1–7 at escalating concentrations ([…]) in PBS, with 2% DMSO as the co-solvent. Additionally, cisplatin served as the positive control, and all samples were incubated for 24 h at 37° C with 5% CO2. Following incubation, the medium was immediately changed to 10 μL of the PrestoBlue reagent in 90 μL of the RPMI medium. As resorufin began to form, the color of the plates changed from blue to purple after being incubated for another one to two hours. Using a microplate reader to measure absorbance at 570 nm and 600 nm, the concentration required to inhibit growth by 50% was calculated as the IC50 value. […] The results of each test and analysis were averaged after being run twice.

Series [2] relates to B16-F10 melanoma cell line. Put plainly: PrestoBlue cytotoxicity assay against B16-F10 melanoma cells. As to conditions: 24 h incubation, run twice and averaged. The procedure:
as §1, §2

Series [3] relates to CV-1 normal kidney fibroblast cell line. The series is described as follows: cells. The procedure:
as §1, §2

The mark [4] stands for this setting: Homo sapiens, MCF7, read-out: IC50 for MCF-7.
Where [5] appears, read: Homo sapiens, MCF7, read-out: IC50 for MCF-7 (μg/mL).
The mark [6] stands for this setting: Mus musculus, read-out: IC50 for B16-F10.
Where [7] appears, read: Mus musculus, read-out: IC50 for B16-F10 (μg/mL).
Where [8] appears, read: Fibroblast, CV-1 normal cells, PrestoBlue, 24 h incubation, run twice and averaged, read-out: IC50 for CV-1.
The mark [9] stands for this setting: Fibroblast, CV-1 normal cells, PrestoBlue, 24 h incubation, run twice and averaged, read-out: IC50 for CV-1 (μg/mL).

In the case of `CC(C)(O)[C@@H]1CC[C@@](C)(C2CC[C@]3(C)C2CCC2[C@@]4(C)CC[C@@H](O)C(C)(C)C4CC[C@]23C)O1` (stereo partly drawn) [Compound 1, 20S,24S-epoxy-3α,25-dihydroxy-dammarane], the IC50 was found to be 142 µM in series [1] (setting [4]); 65.5 µg/mL in series [1] (setting [5]); 97.3 µM in series [2] (setting [6]); 44.8 µg/mL in series [2] (setting [7]); 174 µM in series [3] (setting [8]); 80.1 µg/mL in series [3] (setting [9]).
On to `CC(C)=CCC[C@](C)(O)C1CC[C@]2(C)C1CC[C@@H]1[C@@]3(C)CCC(=O)C(C)(C)C3CC[C@]12C` (stereo partly drawn) [Compound 3, 20S-hydroxy-dammar-24-en-3-on], for which the IC50 in series [1] (setting [4]) was greater than 300 µM; in series [1] (setting [5]), 142 µg/mL; in series [2] (setting [6]) it was 111 µM; in series [2] (setting [7]) it was 49.1 µg/mL; in series [3] (setting [8]) it was greater than 300 µM; in series [3] (setting [9]), greater than 300 µg/mL. In addition, the “cell death based on morphological observation” value in series [3] is on record as “no cell death at all concentration levels”.
As for `CC(=O)O[C@@H]1CC[C@@]2(C)C(CC[C@]3(C)C2CCC2C([C@]4(C)CC[C@@H](C(C)(C)O)O4)CC[C@]23C)C1(C)C` (stereo partly drawn) [Compound 7, 3α-acetyl-20S,24S-epoxy-3α,25-dihydroxydammarane], the IC50 was 195 µM in series [1] (setting [4]); 97.9 µg/mL in series [1] (setting [5]); 158 µM in series [2] (setting [6]); 79.4 µg/mL in series [2] (setting [7]); greater than 300 µM in series [3] (setting [8]); greater than 300 µg/mL in series [3] (setting [9]). The “cell death based on morphological observation” value in series [3] is “no cell death at all concentration levels”.
In the case of `C=C(CCC=C(C)C)C1CC[C@]2(C)C1CC[C@@H]1[C@@]3(C)CCC(=O)C(C)(C)C3CC[C@]12C` (stereo partly drawn) [Compound 2, dammaradienone], the IC50 came to 132 µM in series [1] (setting [4]); 56.1 µg/mL in series [1] (setting [5]); 129 µM in series [2] (setting [6]); 54.8 µg/mL in series [2] (setting [7]); 195 µM in series [3] (setting [8]); 82.8 µg/mL in series [3] (setting [9]).
Take `CC(=O)O[C@@H]1CC[C@@]2(C)C(CC[C@]3(C)C2CCC2C([C@]4(C)CCC(=O)O4)CC[C@]23C)C1(C)C` (stereo partly drawn) [Compound 6, 3α-acetyl-cabraleahydroxy lactone]: the IC50 in series [1] (setting [4]) was 274 µM; in series [1] (setting [5]) it was 126 µg/mL; in series [2] (setting [6]), 274 µM; in series [2] (setting [7]) it was 126 µg/mL; in series [3] (setting [8]) it was 285 µM; in series [3] (setting [9]), 131 µg/mL.
In the case of `N.N.[Cl][Pt][Cl]` [Cisplatin, cisplatin, reference compound], in series [1], the “IC50 for MCF-7” value stood at 53.00 µg/mL. Besides, the IC50 worked out at 176 µM in series [1] (read-out: IC50 for MCF-7); 143 µM in series [2] (read-out: IC50 for B16-F10); 143 µM in series [3] (CV-1 normal cells, PrestoBlue, 24 h incubation, run twice and averaged, read-out: IC50 for CV-1). In addition, the “IC50 for B16-F10” value in series [2] was determined as 43.00 µg/mL. Further, the “IC50 for CV-1” value in series [3] (CV-1 normal cells, PrestoBlue, 24 h incubation, run twice and averaged) was 43.00 µg/mL.
As to `C=C(C)[C@@H]1CC[C@]2(C)[C@H](CC[C@@H]3[C@@H]([C@]4(C)CC[C@@H](C(C)(C)O)O4)CC[C@]32C)[C@@]1(C)CCC(=O)O` [Compound 4, eichlerianic acid], the IC50 in series [1] (setting [4]) was greater than 300 µM; in series [1] (setting [5]) it was greater than 300 µg/mL; in series [2] (setting [6]), greater than 300 µM; in series [2] (setting [7]), 275 µg/mL; in series [3] (setting [8]), 288 µM; in series [3] (setting [9]) it was 137 µg/mL.
On to `COC1CC[C@@](C)(C2CC[C@]3(C)C2CCC2[C@@]4(C)CCC(=O)C(C)(C)C4CC[C@]23C)O1` (stereo partly drawn) [Compound 5, (20S,24RS)-23,24-epoxy-24-methoxy-25,26,27-tris-nor dammar-3-one], for which the IC50 in series [1] (setting [4]) is 133 µM; in series [1] (setting [5]) it was 57.3 µg/mL; in series [2] (setting [6]), 105 µM; in series [2] (setting [7]), 45.4 µg/mL; in series [3] (setting [8]), greater than 300 µM; in series [3] (setting [9]), greater than 300 µg/mL. For the same molecule, in series [3], the “cell death based on morphological observation” value is “no cell death at all concentration levels”.

Source of the values: PMC10343279, “The Cytotoxic Activity of Dammarane-Type Triterpenoids Isolated from the Stem Bark of Aglaia cucullata (Meliaceae)” (Molecules, 2023).
